Experimental data: US5912183A, “Peptide inhibitors of mitogenesis and motogenesis” (Pharmacia & Upjohn S.p.A., priority 1993, dated 1999)
Residues, ends and D or L forms follow the SMILES beside them.

Columns and labels:
GST-SH2 domain of Shc = target: T1, GST-SH2 domain of Shc (Homo sapiens, UniProt P29353); experiment: BIAcore binding of Shc SH2 domain to immobilised phosphopeptides; conditions: biosensor; avidin-immobilized biotinylated phosphopeptide
T1 construct: using the Shc SH2 domain, expressed in bacteria as a GST-fusion protein; made in house; host or cells: bacteria
T1 sequence (P29353 488-579 limits assumed): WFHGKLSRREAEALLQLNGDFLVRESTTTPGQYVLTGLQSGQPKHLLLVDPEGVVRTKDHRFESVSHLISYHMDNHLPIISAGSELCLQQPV
Protocol: FIG. 13. […] The same concentration of Shc-SH2 was injected over two biosensor surfaces on which two phosphopeptides had been immobilised. Y1356P is derived from the sequence VNATY^1356 VNVK (SEQ. ID NO: 28) of the receptor tail; Y317P is derived from the sequence DDPSY^317 VNVQ (SEQ. ID NO: 27). Note that both peptides contain the same core (YVNV) but (SEQ. ID NO: 3) different upstream sequences. The initial rapid increase in the response is due to the "bulk effect" of the injected solution.
In vitro binding studies using GST-fusion protein. The region of the Grb2 cDNA corresponding to its SH2 domain (from nucleotide position 256 to nucleotide position 551) was isolated using polymerase chain reaction (PCR) and cloned into the BamHI-EcoRI sites of the bacterial expression plasmid pGEX-2T (GST-Grb2). Cultures of bacteria expressing GST, GST-Grb2 or GST-Shc (Segatto et al., Oncogene 2105-2112 (1993)) were grown for 3-4 hours at 37° C. in LB medium containing 1 mM IPTG. Bacteria were centrifuged, resuspended in 1/100 volume of ice-cold PY buffer, without Triton™ and lysed by sonication. After adding Triton X-100 to 1%, lysates were clarified by centrifugation. Recombinant proteins were purified onto glutathione Sepharose™ (Pharmacia) and used as such for binding assays. For each reaction, about 5 μg of GST, GST-Grb2 or GST-Shc bound to glutathione Seharose was incubated for 2 hrs. at 4° C. with […] of appropriate cell lysate made in PY buffer. Protein complexes were washed 5 times in ice cold PY buffer, eluted and denatured by heating at 95° C. for 3 min in Laemmli buffer, resolved on SDS-PAGE and analyzed by immunoblot.
The basic principles of operation as well as the methodology for obtaining kinetic measurements of SH2 domain interactions using the BIAcore instrument (Pharmacia) have been previously described in detail (Panayotou et al., Mol. Cell. Biol. 13: 3567-3576 (1993), Ponzetto et al., Mol. Cell. Biol. 13: 4600-4608 (1993)). Purified GST-SH2 domains or intact proteins were desalted in BIAcore running buffer (20 mM Hepes, pH 7.4, 150 mM NaCl, 3.4 mM EDTA, 0.005% Tween 20 and 4 mM DTT) and injected over avidin-immobilized, biotinylated phosphopeptides. The amount of phosphopeptides immobilized was normalized by measuring the binding of anti-phosphotyrosine antibodies. Association was measured over a range of protein concentrations and dissociation of bound material was allowed to occur either in buffer flow or upon injection of 20 μM competing, non-biotinylated phosphopetide. Peptide and protein concentrations were calculated by amino acid analysis on an Applied Biosystem amino acid analyzer.
The direct interaction between the SH2 domain of Shc and phosphotyrosine Y^1349 or Y^1356 was confirmed by real-time Biosensor analysis (Panayotou et al., ibid; Felder et al., Mol. Cell. Biol. 13: 1449-1455 (1993)).
The Shc sequence Y^317 VNV (SEQ. ID NO: 3) is identical to one of the two Shc binding sites present in the SF/HGF receptor (FIG. 8). […] The biosensor was used to compare binding of the Shc SH2 domain to the phosphopeptide DDPSY^317 VNVQ (SEQ. ID NO: 27), present on the Shc molecule, and to the phosphopeptide VNATY^1356 VNVK (SEQ. ID NO: 28), present on the SF/HGF receptor. […] Thus Shc-Shc association is not favoured in vivo, and the Shc phosphotyrosine residue Y^317 is available to bind other molecules, rather than to mediate the formation of concatamers.

Grb2 SH2 domain = target: T2, Grb2 SH2 domain (Homo sapiens, UniProt P62993); experiment: BIAcore real-time binding of Grb2 GST-SH2 fusion protein to immobilized phosphopeptide
T2 construct: corresponding to its SH2 domain (from nucleotide position 256 to nucleotide position 551); made in house; host or cells: bacteria (pGEX-2T)
Protocol: FIG. 15. The Grb2 SH2 domain binds to the Y^317 docking site of Shc. Panel A: sensorgrams obtained by injection of a range of Gst-SH2.Grb2 concentrations over the immobilised phosphopeptide derived from the Shc sequence DDPSY^317 VNVQ (SEQ. ID NO: 27). Panel B: effect of competing peptide on the dissociation rate. At the end of the Grb2 injection, buffer or […] of non-biotinylated phosphopeptide were injected. Panel C: analysis of the data shown in panel A. The figure on the left is a plot of the rate of binding versus the relative response for the six different sensorgrams. In the figure on the right, the slopes of each line are plotted against the concentration: the new slope gives the value of the association rate constant.
In vitro binding studies using GST-fusion protein. The region of the Grb2 cDNA corresponding to its SH2 domain (from nucleotide position 256 to nucleotide position 551) was isolated using polymerase chain reaction (PCR) and cloned into the BamHI-EcoRI sites of the bacterial expression plasmid pGEX-2T (GST-Grb2). Cultures of bacteria expressing GST, GST-Grb2 or GST-Shc (Segatto et al., Oncogene 2105-2112 (1993)) were grown for 3-4 hours at 37° C. in LB medium containing 1 mM IPTG. […] Protein complexes were washed 5 times in ice cold PY buffer, eluted and denatured by heating at 95° C. for 3 min in Laemmli buffer, resolved on SDS-PAGE and analyzed by immunoblot.
The basic principles of operation as well as the methodology for obtaining kinetic measurements of SH2 domain interactions using the BIAcore instrument (Pharmacia) have been previously described in detail (Panayotou et al., Mol. Cell. Biol. 13: 3567-3576 (1993), Ponzetto et al., Mol. Cell. Biol. 13: 4600-4608 (1993)). […] Association was measured over a range of protein concentrations and dissociation of bound material was allowed to occur either in buffer flow or upon injection of 20 μM competing, non-biotinylated phosphopetide. Peptide and protein concentrations were calculated by amino acid analysis on an Applied Biosystem amino acid analyzer. […]

[1] = target: T3, binding of p85 to HGF/SF receptor (Bos taurus, UniProt P23727); experiment: Competition of phosphopeptides with p85 for association with immobilized recombinant HGF/SF receptor (in vitro kinase assay readout); design: species or system human
T3 construct: made in house; host or cells: Sf9 insect cells (baculovirus), for both p85 and the receptor
Protocol: FIG. 1. Inhibition of binding of p85 to HGF/SF receptor by tyrosine-phosphorylated peptides. Recombinant HGF/SF receptor was purified by immunoprecipitation from baculovirus-infected Sf9 cells using a rabbit polyclonal antiserum and phosphorylated with cold ATP. Lysates of Sf9 cells expressing p85 were pre-incubated with each of the phosphopeptides (10 μM). The lysates were then allowed to associate with immobilized recombinant HGF/SF receptors. Following association the complex was washed and receptor-bound p85 was detected by an in vitro kinase assay, as described in Materials and Methods of Example 4. The phosphopeptides are identified by the number of the amino terminal tyrosine.
FIG. 2. Inhibition of binding of p85 to HGF/SF receptor with different concentrations of tyrosine-phosphorylated peptides. The phosphopeptides which efficiently out-competed p85 binding to the HGF/SF receptor (FIG. 1) were used at increasing concentrations (10 nM, 100 nM, 1 μM from left to right) to define their relative affinities for p85. Conditions of the experiment were as in FIG. 1. Phosphopeptide 1365 was used as a negative control for p85 interaction.
In vitro association experiments. Sf9 cells expressing the recombinant HGF/SF receptor (approximately 4×10^6 cells/point) were lysed 36 hours after infection in buffer A (10 mM Tris-HCl buffer pH 7.5, 10% glycerol, 1% Triton X-100, 150 mM NaCl, 5 mM EDTA), supplemented with 0.2 mM phenyl-methylsulfonyl fluoride, 1 μg/ml leupeptin, 0.1 TIU/ml aprotinin and 1 μg/ml pepstatin. Lysates were clarified at 15,000×g at 4° C. for 15 minutes and the supernatants immunoprecipitated after 2 hours incubation with anti-Met antibodies coupled to Protein A-Sepharose. Immunocomplexes were washed three times with buffer A, once with buffer B (10 mM Tris-HCl pH 7.4, 100 mM NaCl, 1 mM EDTA) and once with buffer C (25 mM 4-(2-hydroxyethyl)-1-piperazine-ethanesulfonic acid (HEPES) buffer pH 7.2, 100 mM NaCl, 5 mM MgCl2). Samples were pre-phosphorylated by incubation for 15 minutes at 25° C. in buffer C with 10 μM unlabelled ATP and then washed three times with cold buffer A supplemented with 1 mM sodium ortho-vanadate. Association between the immobilized receptor and the baculovirus-expressed p85 was carried out as previously described (Bardelli, A., et al., Oncogene 7: 1973-1978 (1992)). For the association experiments with the PI 3-kinase holoenzyme three days serum-starved A549 cells (approx. 2×10^6 cells/point) were used as a source of PI 3-kinase. A549 cells were Dounce-homogenized in MOPS buffer (20 mM 3-(N-morpholino)propanesulfonic acid) (pH 7.5), 1 mM MgCl2, 0.1 mM EDTA, 200 mM sucrose, 1 mM sodium ortho-vanadate), supplemented with 0.2 mM phenylmethylsulfonyl fluoride, 1 μg/ml leupeptin, 0.1 TIU/ml aprotinin and 1 μg/ml pepstatin. Homogenates were centrifuged at 100,000×g for 20 minutes at 4° C. When checking for the ability of phosphopeptides to block the association with the receptor, cell lysates were pre-incubated with the phosphopeptides for 1 hour at 4° C. prior to incubation with the immobilized recombinant HGF/SF receptor. Following association, immunocomplexes were washed three times with buffer A, twice with buffer D (0.5M LiCl, 100 mM Tris-HCl pH 7.6), and twice with buffer B.
The presence of the p85 subunit of the PI 3-kinase in the receptor immunoprecipitate was determined by: i) labelling of the receptor and associated proteins with [γ-^32 P]ATP by in vitro kinase assay; ii) Western immunoblotting; iii) PI 3-kinase activity assay.
In vitro kinase assay. Receptor-associated proteins were labelled in 20 μl of buffer C, in the presence of 10 μCi [γ-^32 P]ATP (specific activity 7,000 Ci/Mm; Amersham) at 25° C. for 15 minutes. The reaction was stopped by adding 1 ml of ice-cold Buffer A without protease inhibitors. Samples were washed three times with cold buffer A. The labelled immunocomplexes were eluted from Protein A-Sepharose in boiling Laemmli buffer. […]

[2] = system: binding of PI 3-kinase holoenzyme to HGF/SF receptor; experiment: Competition of phosphopeptides with PI 3-kinase holoenzyme (A549 cytosolic extracts) for association with recombinant HGF/SF receptor (PI 3-kinase activity assay); design: species or system human; conditions: phosphopeptide 10 μM; A549 cytosolic extracts; FIG. 3
Protocol: FIG. 3. Inhibition of binding of PI 3-kinase holoenzyme to HGF/SF receptor by tyrosine-phosphorylated peptides. The phosphopeptides which efficiently out-competed p85 (FIG. 1) were assayed for the ability to interfere with binding of the PI 3-kinase holoenzyme to the HGF/SF receptor. Cytosolic extracts from three days-starved A549 cells were pre-incubated with each of the phosphopeptides (10 μM) prior to incubation with the immobilized recombinant HGF/SF receptor. The presence of receptor-associated PI 3-kinase in the immunocomplexes was determined by PI 3-kinase activity assay, as described in Materials and Methods of Example 4. The position of the phosphatidylinositol-3-phosphate (PIP) product of the PI 3-kinase reaction is indicated.
In vitro association experiments. Sf9 cells expressing the recombinant HGF/SF receptor (approximately 4×10^6 cells/point) were lysed 36 hours after infection in buffer A (10 mM Tris-HCl buffer pH 7.5, 10% glycerol, 1% Triton X-100, 150 mM NaCl, 5 mM EDTA), supplemented with 0.2 mM phenyl-methylsulfonyl fluoride, 1 μg/ml leupeptin, 0.1 TIU/ml aprotinin and 1 μg/ml pepstatin. […]
The presence of the p85 subunit of the PI 3-kinase in the receptor immunoprecipitate was determined by: i) labelling of the receptor and associated proteins with [γ-^32 P]ATP by in vitro kinase assay; ii) Western immunoblotting; iii) PI 3-kinase activity assay. […]

T2 sequence (P62993 60-152 limits assumed): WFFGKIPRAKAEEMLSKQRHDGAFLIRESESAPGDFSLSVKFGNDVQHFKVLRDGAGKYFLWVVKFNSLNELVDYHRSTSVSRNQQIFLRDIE
T3 sequence (P23727 whole entry): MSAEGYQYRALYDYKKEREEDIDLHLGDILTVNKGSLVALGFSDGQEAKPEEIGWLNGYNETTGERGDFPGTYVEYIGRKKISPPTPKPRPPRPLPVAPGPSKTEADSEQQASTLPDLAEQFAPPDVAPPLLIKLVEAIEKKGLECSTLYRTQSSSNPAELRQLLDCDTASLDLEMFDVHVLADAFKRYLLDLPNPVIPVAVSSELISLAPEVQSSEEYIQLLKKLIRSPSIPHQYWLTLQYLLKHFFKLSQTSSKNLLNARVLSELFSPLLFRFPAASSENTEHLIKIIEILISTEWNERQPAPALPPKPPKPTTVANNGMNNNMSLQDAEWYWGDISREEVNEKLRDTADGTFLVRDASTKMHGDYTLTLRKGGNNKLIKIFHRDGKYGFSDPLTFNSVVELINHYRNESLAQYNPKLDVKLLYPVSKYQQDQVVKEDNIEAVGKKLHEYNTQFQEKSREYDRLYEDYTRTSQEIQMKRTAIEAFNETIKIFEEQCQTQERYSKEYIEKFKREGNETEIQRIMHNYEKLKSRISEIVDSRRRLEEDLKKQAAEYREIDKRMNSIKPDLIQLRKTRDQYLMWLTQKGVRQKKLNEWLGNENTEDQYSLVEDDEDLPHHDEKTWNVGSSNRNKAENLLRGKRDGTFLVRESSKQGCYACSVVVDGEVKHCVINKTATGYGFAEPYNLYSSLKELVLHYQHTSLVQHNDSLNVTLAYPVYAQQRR

SMILES | Binding of Shc SH2 domain to immobilised phosphopeptide (GST-SH2 domain of Shc) | kon (Grb2 SH2 domain; Grb2 GST-SH2 over immobilized phosphopeptide, read-out: K^ass (association rate constant)) [M⁻¹ s⁻¹] | Kd (Grb2 SH2 domain; from Kdiss and K^ass, read-out: Overall affinity) [nM] | Kdiss (dissociation rate) (Grb2 SH2 domain; measured in buffer and in the presence of competing phosphopeptide to prevent re-binding) [S^-1] | Inhibition of binding of p85 to HGF/SF receptor ([1]; phosphopeptide 10 μM, p85 from Sf9 lysates, FIG. 1) | Efficiency at outcompeting p85 (relative affinity for p85) ([1]; phosphopeptides at 10 nM, 100 nM, 1 μM, FIG. 2, rank order SEQ. ID NO: 19, then 22, 20, 18) | Interference with binding of PI 3-kinase holoenzyme to HGF/SF receptor [2]
CC(C)[C@H](NC(=O)[C@H](CC(N)=O)NC(=O)[C@@H](NC(=O)[C@H](Cc1ccc(OP(=O)(O)O)cc1)NC(=O)[C@H](CO)NC(=O)[C@@H]1CCCN1C(=O)[C@H](CC(=O)O)NC(=O)[C@@H](N)CC(=O)O)C(C)C)C(=O)N[C@@H](CCC(N)=O)C(=O)O [DDPSY^317* VNVQ, H-Asp-Asp-Pro-Ser-Tyr*-Val-Asn-Val-Gln-OH] (HELM PEPTIDE1{D.D.P.S.[O=C([C@H](Cc1ccc(OP(=O)(O)O)cc1)N[*:1])[*:2]].V.N.V.Q}$$$$V2.0) | much more weakly | 260000 | 153 | 0.04 |  |  | 
CC(C)[C@H](NC(=O)[C@H](CC(N)=O)NC(=O)[C@@H](NC(=O)[C@H](Cc1ccc(OP(=O)(O)O)cc1)NC(=O)[C@@H](NC(=O)[C@H](C)NC(=O)[C@H](CC(N)=O)NC(=O)[C@@H](NC(=O)[C@H](Cc1c[nH]cn1)NC(=O)[C@@H](NC(=O)[C@@H](N)Cc1ccc(OP(=O)(O)O)cc1)C(C)C)C(C)C)[C@@H](C)O)C(C)C)C(=O)N[C@@H](CCCCN)C(=O)O [H-Tyr*-Val-His-Val-Asn-Ala-Thr-Tyr*-Val-Asn-Val-Lys-OH] (HELM PEPTIDE1{[N[C@@H](Cc1ccc(OP(=O)(O)O)cc1)C(=O)[*:2]].V.H.V.N.A.T.[O=C([C@H](Cc1ccc(OP(=O)(O)O)cc1)N[*:1])[*:2]].V.N.V.K}$$$$V2.0) |  |  |  |  | completely prevented p85 binding | comparable to H-Tyr*-Val-Asn-Val-Lys-Cys-Val-Ala-OH | more efficient at displacing the PI 3-kinase holoenzyme from the HGF/SF receptor than those including just one of these residues
